Patent publication US9855257B2, “4-alkynyl imidazole derivative and medicine comprising same as active ingredient” (KAKEN PHARMACEUTICAL CO., LTD., priority 2013, dated 2018)
pIC50: −log10 of the molar value.

Columns and labels:
[1] = molecular target: T1, rat EP4 receptor (Rattus norvegicus, UniProt P43114); assay: Rat EP4 receptor antagonistic action by the reporter assay method; format: cell-based; conditions: COS-7 cells expressing rat EP4 receptor, CRE-LUC reporter, PGE2 1×10^−8 mol/L; geometric mean of three cases; read-out: Intensity of EP4 Receptor Antagonistic Activity IC50
T1 construct: its translated region was integrated into the expression vector pShooter (Invitrogen); expressed in transfected cells; host or cells: COS-7 cells (Cercopithecus aethiops kidney), transiently co-transfected with ratEP4-pShooter and a CRE-LUC reporter vector
T1 sequence (P43114 whole entry): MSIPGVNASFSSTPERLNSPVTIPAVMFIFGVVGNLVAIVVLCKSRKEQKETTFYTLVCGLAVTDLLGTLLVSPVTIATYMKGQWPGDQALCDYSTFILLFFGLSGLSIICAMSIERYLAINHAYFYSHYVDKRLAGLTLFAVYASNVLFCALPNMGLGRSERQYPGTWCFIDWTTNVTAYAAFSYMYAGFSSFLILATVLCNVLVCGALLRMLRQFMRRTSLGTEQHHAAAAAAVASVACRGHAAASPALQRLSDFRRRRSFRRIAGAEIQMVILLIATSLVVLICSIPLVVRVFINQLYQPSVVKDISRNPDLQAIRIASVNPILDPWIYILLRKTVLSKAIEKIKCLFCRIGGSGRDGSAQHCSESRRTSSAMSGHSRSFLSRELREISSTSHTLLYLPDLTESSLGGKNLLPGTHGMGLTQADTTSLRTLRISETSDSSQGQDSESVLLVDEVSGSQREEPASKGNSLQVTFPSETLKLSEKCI
Description: Test for Evaluating the Rat EP4 Receptor Antagonistic Action by the Reporter Assay Method
The first step was the cloning of the rat EP4 receptor. Total RNA was prepared from the kidney extracted from rats. With the total RNA used as a template, the rat EP4 receptor gene was cloned by RT-PCR and its translated region was integrated into the expression vector pShooter (Invitrogen) to prepare a rat EP4 receptor expressing vector (ratEP4-pShooter).
In the next step, rat EP4 receptor expressing cells for use in the reporter assay were prepared. COS-7 cells (derived from the kidney of Cercopithecus aethiops) were cultured in Dulbecco's Modified Eagle Medium (DMEM) (supplemented with 10% fetal bovine serum) in a 75-cm^2 cell culture flask. After the cells proliferated to a subconfluent state, the medium was removed and rinsed with phosphate buffered physiological saline (PBS). Trypsin-EDTA and a growth medium were used to recover the cells, which were then centrifuged. The supernatant was removed and the cells were suspended in DMEM. The cell suspension was seeded on a 96-well plate at a density of 2×10^4 cells/100 μL/well and cultured. The DMEM was mixed with Plus reagent, Lipofectamine 2000, the rat EP4 receptor expressing vector (ratEP4-pShooter) and a CRE-LUC reporter vector (CLONTECH) to prepare a transfection solution. Three hours after the seeding of the cells, 50 μL of the medium was removed and 50 μL/well of the transfection solution was added, followed by culture overnight. Negative control cells were prepared using pShooter in place of the receptor expressing vector. The cells were seeded on a 96-well plate for reporter assay and cultured.
The medium on the 96-well plate was removed and a test compound was added in an amount of 50 μL/well. After ca. 30-min culture, a PGE2 solution (2×10^−8 mol/L) was added in an amount of 50 μL/well (final concentration of PGE2: 1×10^−8 mol/L). As a PGE2-free control, there were provided wells to which a test medium had been added in an amount of 50 μL/well. About three hours later, the medium was removed and reporter assay was performed in accordance with the protocol accompanying the Steady-Glo Luciferase Assay System kit. Luminous intensity was measured with a microplate reader (Fusion-FPα, PerkinElmer) and EP4 receptor antagonistic activity (%) was determined by the following calculation formula: EP4 receptor antagonistic activity (%)=[1−(RLU(A,X)−RLU(0))/(RLU(PGE2)−RLU(0))]×100 RLU(A,X): Luminous intensity expressed in relative luminescence units (RLU) for the case where the test compound (A) X (mol/L) and PGE2 10^−8 mol/L were both added; RLU(PGE2): Luminous intensity for the case where only PGE2 10^−8 mol/L was added; RLU(0): Luminous intensity for the case where neither test compound nor PGE2 was added.
In addition, a dose-response curve was plotted from the EP4 receptor antagonistic activities at varying concentrations of each test compound and using the following approximation formula, the IC50 (the concentration of the test compound required to inhibit the PGE2 inducing activity by 50%) was calculated to determine the intensity of the compound's EP4 receptor antagonistic activity. The results are shown in Table 2: Y=Bottom+(Top−Bottom)/{1+10^(Log IC50−Log X)} Bottom: 0 Top: 100 X: Concentration of the test compound (mol/L) Y: EP4 receptor antagonistic activity (%)

[2] = test system: Adjuvant Induced Arthritis in Rats; assay: Anti-inflammatory and analgesic effects on adjuvant induced arthritis in rats; format: in vivo, rat; set-up: Percent Effectiveness: scale not given: direction of the effect not stated beside the values; conditions: Lewis male rats, oral 0.3 mg/kg once a day, day 9 to day 17 after adjuvant; for Percent paw edema suppression: measured at day 18, means of 8˜10 cases; for Percent Effectiveness: pain threshold at day 18, 8˜10 cases
Description: Test for Evaluating Anti-Inflammatory and Analgesic Effects on Adjuvant Induced Arthritis in Rats
The animals were Lewis male rats (6-week old). An adjuvant solution (2 mg/mL) was administered intradermally to the footpad of the left hind leg of each animal at a dose of 0.1 mL to create an arthritis model. Paw volume was measured with a paw volume meter (PLETHYSMOMETER, Ugo Basile Model 7141). For evaluation of pain thresholds, a probe fitted to the sensor site of Pressure Application Measurement (PAM, Ugo Basile Model 38500) was used to turn the foot sole of a rat upward (dorsiflexion) until it gave an indication of pain or discomfort (vocalization) and the load being applied was measured. Eight days after the treatment with the adjuvant, the paw volume and pain threshold of each treated foot were measured and the animals were grouped for oral administration of each test compound (0.3 mg/kg) which was performed for nine days on a once-a-day schedule starting at day 9 and ending at day 17 after the treatment. At day 18 after the treatment, the paw volume and pain threshold of each […] foot were measured.
The anti-inflammatory effect of the test compound was confirmed using the percent paw edema suppression as an indicator. Percent paw edema suppression (%)=[(paw volume change in the control group−paw volume in each treatment group)/(paw volume change in the control group−paw volume change in the non-treatment group)]×100
As for the analgesic effect, the animals in the test compound group that had nociceptive thresholds greater than [(the mean nociceptive threshold of the control group)+2×standard deviation] were found “effective animals” and the percent effectiveness of each compound was calculated.

[3] = test system: Carrageenin Induced Hyperalgesia in Rats; assay: Analgesic effect on carrageenin induced hyperalgesia in rats; format: in vivo; conditions: Rattus norvegicus, 2 h; SD male rats, oral 10 mg/5 mL/kg six hours after carrageenin, nociceptive threshold (Randall-Selitto) two hours after administration; 5˜7 cases; read-out: Percent Effectiveness
Description: Test for Evaluating Analgesic Effect on Carrageenin Induced Hyperalgesia in Rats
The animals were SD male rats (5-week old). Before treatment with carrageenin (or distilled water), the rats were measured for nociceptive thresholds in their right hind leg by the Randall-Selitto method and divided into a carrageenin treatment group and a non-treatment group to provide uniformity in nociceptive threshold. The carrageenin treatment group was given a 1 w/v % carrageenin solution and the non-treatment group given distilled water, each administered subcutaneously to the footpad of the right hind leg at a dose of 0.1 mL. Five hours after the treatment, the nociceptive thresholds were measured and the individuals with decreased thresholds were selected and grouped such that there was no inter-group difference in threshold. Six hours after the treatment, each test compound was orally administered at a dose of 10 mg/5 mL/kg. The control group was administered 0.5% methylcellulose. Two hours after the administration of the test compound (8 hours after the treatment), the nociceptive threshold was measured. The animals in the test compound group that had nociceptive thresholds greater than [(the mean nociceptive threshold of the control group)+2×standard deviation] were found “effective animals” and the percent effectiveness of each compound was calculated.

[4] = test system: Carrageenin Induced Paw Edema in Rats; assay: Anti-inflammatory effect on carrageenin induced paw edema in rats; format: in vivo, rat; conditions: positive control, maximum efficacy at doses of 10˜30 mg/kg
Description: Test for Evaluating the Anti-Inflammatory Effect on Carrageenin Induced Paw Edema in Rats
The animals were Wistar male rats (7-week old). The paw volume of the right hind leg was measured with a paw volume meter (PLETHYSMOMETER, Ugo Basile Model 7141 or 7150). One hour after orally administering a test compound at a dose of 10 mg/5 mL/kg, a carrageenin treatment group was given a 1 w/v % carrageenin solution and a non-treatment group given distilled water, each administered subcutaneously to the footpad of the right hind leg at a dose of 0.1 mL. Four hours after the treatment with carrageenin (or distilled water), the paw volume was measured and the change in paw volume from the pre-treatment value was calculated. The anti-inflammatory effect of the test compound was confirmed using the percent paw edema suppression (see below) as an indicator. In the present experimental models, Cerecoxib (COX inhibitor already available on the market as an anti-inflammatory/analgesic agent) was used as a positive control.

pIC50 [1] | Compound | other results
7.85 | CC(C)(O)C#Cc1nc(Cl)n(Cc2ccc(C(F)(F)F)cc2)c1C(=O)NCc1ccc(C(=O)O)cc1 [Compound 2, 4-({2-Chloro-4-(3-hydroxy-3-methyl-1-butyn-1-yl)-1-[4-(trifluoromethyl)benzyl]-1H-imidazole-5-carboxamido}methyl)benzoic acid] | Percent paw edema suppression [2]: 21%; Percent Effectiveness [2]: 38%
7.76 | CC(C)(O)C#Cc1nc(Cl)n(CCOc2ccc(Cl)cc2)c1C(=O)NCc1ccc(C(=O)O)cc1 [Compound 44] | responders at 10 mg/kg [3]: 50%
8.29 | COC(C)(C)C#Cc1nc(Cl)n(CCOc2ccc(Cl)cc2)c1C(=O)NCc1ccc(C(=O)O)cc1 [Compound 45] | responders at 10 mg/kg [3]: 50%
7.58 | COC(C)(C)C#Cc1nc(C(F)F)n(CCOc2ccc(Cl)cc2)c1C(=O)NCc1ccc(C(=O)O)cc1 [Compound 64] | –
8.10 | COC(C)(C)C#Cc1nc(Cl)n(Cc2ccc(OC(F)F)cc2)c1C(=O)NCc1ccc(C(=O)O)cc1 [Compound 52] | –
7.99 | COC(C)(C)C#Cc1nc(Cl)n(Cc2ccc(C(F)F)cc2)c1C(=O)NC[C@H]1CC[C@H](C(=O)O)CC1 [Compound 60, trans-4-({2-Chloro-1-[4-(difluoromethyl)benzyl]-4-(3-methoxy-3-methyl-1-butyn-1-yl)-1H-imidazole-5-carboxamido}methyl)cyclohexanecarboxylic acid] | –
8.10 | COC(C)(C)C#Cc1nc(Cl)n(Cc2ccc(OC(F)F)cc2)c1C(=O)NCC1CCC(C(=O)O)CC1 (centres unmarked) [Compound 51] | –
8.14 | O=C(NCC1CCC(C(=O)O)CC1)c1c(C#CC2(O)CCCC2)nc(Cl)n1Cc1ccc(C(F)(F)F)cc1 (centres unmarked) [Compound 16] | –
7.30 | COC(C)(C)C#Cc1nc(Cl)n(Cc2ccc(F)cc2)c1C(=O)NCc1ccc(C(=O)O)cc1 [Compound 56, 4-{[2-Chloro-1-(4-fluorobenzyl)-4-(3-methoxy-3-methyl-1-butyn-1-yl)-1H-imidazole-5-carboxamido]methyl}benzoic acid] | –
8.52 | CC(C)(O)C#Cc1nc(Cl)n(Cc2ccc(C(F)(F)F)cc2)c1C(=O)NC1(c2ccc(C(=O)O)cc2)CC1 [Compound 4] | –
– | Cc1ccc(-c2cc(C(F)(F)F)nn2-c2ccc(S(N)(=O)=O)cc2)cc1 [Cerecoxib, reference compound] | Percent paw edema suppression at the maximum efficacy [4]: 32˜37%
8.68 | COC(C)(C)C#Cc1nc(Cl)n(Cc2ccc(C)cc2)c1C(=O)NC1(c2ccc(C(=O)O)cc2)CC1 [Compound 67, 4-(1-{2-Chloro-4-(3-methoxy-3-methyl-1-butyn-1-yl)-1-(4-methylbenzyl)-1H-imidazole-5-carboxamido}cyclopropyl)benzoic acid] | responders at 10 mg/kg [3]: 100%
8.08 | COC(C)(C)C#Cc1nc(Cl)n(Cc2ccc(C(F)(F)F)cc2)c1C(=O)NCc1ccc(C(=O)O)cc1 [Compound 41] | –
7.62 | CC(C)(O)C#Cc1nc(Cl)n(Cc2ccc(C(F)(F)F)cc2)c1C(=O)NC[C@H]1CC[C@H](C(=O)O)CC1 [Compound 1, trans-4-({2-Chloro-4-(3-hydroxy-3-methyl-1-butyn-1-yl)-1-[4-(trifluoromethyl)benzyl]-1H-imidazole-5-carboxamido}methyl)cyclohexanecarboxylic acid] | Percent paw edema suppression [2]: 54%; Percent Effectiveness [2]: 30%
8.21 | Cc1ccc(Cn2c(Cl)nc(C#CC(C)(C)O)c2C(=O)NC2(c3ccc(C(=O)O)cc3)CC2)cc1 [Compound 68] | –
7.19 | CC(C)(O)C#Cc1nc(C2CC2)n(Cc2ccc(C(F)(F)F)cc2)c1C(=O)NCc1ccc(C(=O)O)cc1 [Compound 20, 4-({2-cyclopropyl-4-(3-hydroxy-3-methyl-1-butyn-1-yl)-1-[4-(trifluoromethyl)benzyl]-1H-imidazole-5-carboxamido}methyl)benzoic acid] | –
8.96 | COC(C)(C)C#Cc1nc(Cl)n(Cc2ccc(OC(F)(F)F)cc2)c1C(=O)N[C@@H](C)c1ccc(C(=O)O)cc1 [Compound 50] | –
7.58 | CC(C)(C#Cc1nc(Cl)n(CCOc2ccc(Cl)cc2)c1C(=O)NC[C@H]1CC[C@H](C(=O)O)CC1)CO [Compound 61, Trans-4-({2-chloro-1-[2-(4-chlorophenoxy)ethyl]-4-(4-hydroxy-3,3-dimethyl-1-butyn-1-yl)-1H-imidazole-5-carboxamido}methyl)cyclohexanecarboxylic acid] | –
7.79 | COC(C)(C)C#Cc1nc(Cl)n(Cc2cccc(OC(F)F)c2)c1C(=O)NCc1ccc(C(=O)O)cc1 [Compound 54] | –
7.58 | Cc1ccc(Cn2c(Cl)nc(C#CC(C)(C)O)c2C(=O)NC[C@H]2CC[C@H](C(=O)O)CC2)cc1 [Compound 21, trans-4-{[2-Chloro-4-(3-hydroxy-3-methyl-1-butyn-1-yl)-1-(4-methylbenzyl)-1H-imidazole-5-carboxamido]methyl}cyclohexanecarboxylic acid] | Percent paw edema suppression [2]: 53%; Percent Effectiveness [2]: 20%
